Data set [1] is described as follows: Bioavailability: plasma concentration after oral administration to rats. Conditions: rat; for Cmax / Tmax: male, Sprague-Dawley, plasma, vehicle Mix; for Cmax / Tmax / AUC / delivery of PL-100 and PL-337 compared to non-aqueous formulations of PL-100 and PL-337: 50 mg/Kg po; for delivery of PL-100 and PL-337 compared to non-aqueous formulations of PL-100 and PL-337: aqueous dosing; for administered compound detected in the blood samples: po, delivered as aqueous solutions, suggests rapid metabolism to parent drugs. The class given is in vivo, male Sprague-Dawley rats. The protocol: To assess the extent of in vivo cleavage of the phosphate group from the putative compounds, PL-100, PL-462 (based on PL-100), PL-337 and PL-515 (based on PL-337) compounds were administered po (50 mg/kg) to male Sprague-Dawley rats and their plasma concentration measured at different time intervals post-administration. All test articles (PL-100, PL-462, PL-337 and PL-515) were prepared in different vehicle at the final concentration of 25 mg/mL. The vehicle composition is as follows: (1) 20% ethanol; 50% propylene glycol; 0.05% w/v Tween 20 and water (Mix); (2) PBS buffer (PBS). Test articles were administered to male Sprague-Dawley rats at a single oral dose of 50 mg/kg. Each article was tested in three rats. Blood samples (0.2-0.3 mL) were collected at the post-dose time of 10, 20, 40, 60,120, 180 and 360 minutes. The harvested blood was centrifuged to isolate plasma. The resulting plasma was separated and stored at -70°C. Plasma samples together with standards and quality control samples were treated to precipitate proteins, then analyzed by HPLC-MS, for the presence of PL-462, PL-100, PL-515 and PL-337.

Data set [2] can be described thus: Partition coefficient (LogP), octanol / phosphate buffer pH 7.4. The class given is physicochemical. The following applies: octanol and phosphate buffer pH 7.4 (0.04 M KHPO4), LC-MS detection. The text has this:
The concentration of the compounds in the phases was detected by LC-MS.

The mark [3] stands for this setting: vehicle Mix (20% ethanol; 50% propylene glycol; 0.05% w/v Tween 20 and water).
The mark [4] stands for this setting: vehicle PBS, parent drug (PL-100 or PL-337) detected in plasma.

The values below come from EP2165709B1, “Pharmaceutical compositions comprising a lysine based compound and an HIV antiviral or antiretroviral agent” (Ambrilia Biopharma Inc., priority 2004, dated 2006).

Where two headings read alike, the source gives them in different places.

The Cmax is the highest concentration seen after dosing. Usually Tmax stands for the time from dosing to the highest level. As a reminder, the logP is a log measure of how a compound divides between an organic and an aqueous phase.

Take `COC(=O)N[C@H](C(=O)NCCCC[C@@H](CO)N(CC(C)C)S(=O)(=O)c1ccc(N)cc1)C(c1ccccc1)c1ccccc1` [PL-100, (1S,5S)-(1-{5-[(4-amino-benzenesulfonyl)-isobutyl-amino]-6-hydroxy-hexylcarbamoyl}-2,2-diphenyl-ethyl)-carbamic acid methyl ester]: in data set [1], the concentration peaked (Cmax) at 498 ± 203 nM and the Tmax was 40 min. In data set [1] (setting [3]), this compound gave an AUC of 0.675 ± 0.171 µg/hr*ml. Besides, the logP in data set [2] (read-out: LogP) came to 3.6.

Regarding `COC(=O)N[C@H](C(=O)NCCCC[C@@H](CO)N(CC(C)C)S(=O)(=O)c1ccc(N)c(F)c1)C(c1ccccc1)c1ccccc1` [PL-337, (1-{5-[(4-amino-3-fluoro-benzenesulfonyl)-isobutyl-amino]-6-hydroxy-hexylcarbamoyl}-2,2-diphenyl-ethyl)-carbamic acid methyl ester], in data set [1], the peak concentration (Cmax) turned out to be 681 ± 131 nM and the time to peak (Tmax) is 60 min. The AUC in data set [1] (setting [3]) came to 1.180 ± 0.196 µg/hr*ml.

Take `COC(=O)N[C@H](C(=O)NCCCC[C@@H](COP(=O)(O)O)N(CC(C)C)S(=O)(=O)c1ccc(N)cc1)C(c1ccccc1)c1ccccc1` [PL-461, (1S,5S)-(1-{5-[(4-amino-benzenesulfonyl)-isobutyl-amino]-6-phosphonooxy-hexylcarbamoyl}-2,2-diphenyl-ethyl)-carbamic acid methyl ester]: in data set [2] (read-out: LogP), the log partition coefficient (logP) is -1.2.

For `COC(=O)N[C@H](C(=O)NCCCC[C@@H](COP(=O)(O)O)N(CC(C)C)S(=O)(=O)c1ccc(N)cc1)C(c1ccccc1)c1ccccc1.[Na]` [PL-462, (1S,5S)-(1-{5-[(4-amino-benzenesulfonyl)-isobutyl-amino]-6-phosphonooxy-hexylcarbamoyl}-2,2-diphenyl-ethyl)-carbamic acid methyl ester sodium salt], in data set [1] (setting [4]), the AUC is 0.816 ± 0.295 (PL-100, detected) µg/hr*ml. In addition, in data set [1], the “delivery of PL-100 and PL-337 compared to non-aqueous formulations of PL-100 and PL-337” value is listed as “equivalent to slightly superior”; the “administered compound detected in the blood samples” value is on record as “None”. In addition, the logP in data set [2] is reported as -1.2.

In the case of `COC(=O)N[C@H](C(=O)NCCCC[C@@H](COP(=O)(O)O)N(CC(C)C)S(=O)(=O)c1ccc(N)c(F)c1)C(c1ccccc1)c1ccccc1` [PL-515, (1S,5S)-(1-{5-[(4-amino-3-fluoro-benzenesulfonyl)-isobutyl-amino]-6-phosphonooxy-hexylcarbamoyl}-2,2-diphenyl-ethyl)-carbamic acid methyl ester], the AUC in data set [1] (setting [4]) is 1.075 ± 0.625 (PL-337, detected) µg/hr*ml. Also, in data set [1], the “delivery of PL-100 and PL-337 compared to non-aqueous formulations of PL-100 and PL-337” value is “equivalent to slightly superior”; the “administered compound detected in the blood samples” value is “None”. For the same compound, the log partition coefficient (logP) in data set [2] (read-out: LogP) was -0.75.
